Data taken from ChEMBL document CHEMBL5725721, “Pyridazinone-amides derivatives” (2017).

Molecular target: Interleukin-1 receptor-associated kinase 1 (Homo sapiens, UniProt P51617)
Assay: IRAK1 Enzymatic Assay: IRAK1 is a human purified recombinant enzyme (His-TEV-IRAK1 (194-712)) In this assay, IRAK-1 hydrolyses ATP and autophosphorylates.Measurement of IRAK-1 inhibition is performed in streptavidin coated 384 well FlashPlate (PerkinElmer #SMP410A).His-TEV-IRAK-1 (15 ng/well), ATP (1 μM, [33P]ATP 0.25 μCi/well) and compounds in DMSO (range of concentrations from 20 μM to 1 nM) or controls (2% DMSO) are incubated for 3 hours at 30° C. in assay buffer: Hepes pH7.0 50 mM, Fatty acid-free BSA 0.1%, Dithiothreitol DTT 2 mM, MgCl2 10 mM, EGTA 0.5 mM, Triton-X-100 0.01%. Kinase reaction is stopped by addition of EDTA. Supernatant is discarded, plates are washed three times with 150 mM NaCl and radioactivity is then measured in a Microbeta Trilux reader.

Sequence of Interleukin-1 receptor-associated kinase 1 (P51617 whole entry): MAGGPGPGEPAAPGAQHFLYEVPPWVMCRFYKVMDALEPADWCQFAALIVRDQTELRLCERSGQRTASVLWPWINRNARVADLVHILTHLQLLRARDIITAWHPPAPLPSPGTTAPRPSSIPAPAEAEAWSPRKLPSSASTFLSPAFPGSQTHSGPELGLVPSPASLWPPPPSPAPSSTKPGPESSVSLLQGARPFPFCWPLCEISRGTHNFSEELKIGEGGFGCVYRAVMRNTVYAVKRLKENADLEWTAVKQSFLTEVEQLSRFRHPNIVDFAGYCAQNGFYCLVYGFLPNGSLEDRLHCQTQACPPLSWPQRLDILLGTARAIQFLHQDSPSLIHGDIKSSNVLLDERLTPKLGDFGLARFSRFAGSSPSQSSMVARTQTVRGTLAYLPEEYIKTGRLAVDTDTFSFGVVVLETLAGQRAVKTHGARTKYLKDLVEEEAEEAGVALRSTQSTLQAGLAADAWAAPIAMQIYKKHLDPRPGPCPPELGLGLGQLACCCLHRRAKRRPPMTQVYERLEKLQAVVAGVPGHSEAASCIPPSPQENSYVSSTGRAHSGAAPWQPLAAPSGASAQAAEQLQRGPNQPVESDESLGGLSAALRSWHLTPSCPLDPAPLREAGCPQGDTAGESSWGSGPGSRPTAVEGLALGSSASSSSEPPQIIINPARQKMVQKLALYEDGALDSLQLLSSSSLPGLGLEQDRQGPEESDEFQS

IC50: < 100 nM
SMILES: Cc1ccncc1-c1ccc(=O)n(Cc2cccc(C(=O)Nc3nc4ccccc4[nH]3)c2)n1
